Assay [1] has as its system Carrageenin-Induced Edema. In words: Carrageenin-induced edema in the rat. It is filed as in vivo, rat (Royal Hart, Wistar strain). The note with it: oral gavage, 5 hours after drug, 4 hours after carrageenin, dose not given, * p = <.05 by t test. Here is the method:
(A) Carrageenin-induced edema in the rat
In determining the acute anti-inflammatory activity of the cis-2-[2(or 3)-thenoyl]-3-hydroxy-2-alkenenitriles of the present invention, Royal Hart, Wistar strain rats, ranging in weight from 80 to 90 grams were used. The rats were fasted overnight prior to dosing but had free access to water. The test compounds were administered in aqueous suspension, by gavage, in a volume of 1.7 ml. per 50 grams of rat [corresponds to hydration volume used by Winter, et al., Proc. Soc. […] The phlogistic agent used was carrageenin prepared as a sterile 1% suspension in 0.9% aqueous sodium chloride for routine testing. A volume of 0.05 ml. was injected through a 26 gauge needle into the plantar tissue of the right hind paw. Measurements were made 5 hours after drug administration (4 hours after carrageenin challenge). Volumes of both the normal and carrageenin inflammed feet were determined. The difference between the two measurements is considered to be the increased edema due to the carrageenin administration. Results are expressed as a C/T efficacy ratio (edema of control animals/edema of treated animals).

In assay [2] the test system is Adjuvant Induced Arthritis in Rats. Description: Adjuvant-induced arthritis in the rat. In kind it is in vivo, rat (Royal Hart, Wistar strain). Here is the method: (B) Adjuvant-induced arthritis in the rat […] Groups of three Royal Hart, Wistar strain rats weighing 200±10 g. each were injected intradermally in the right hind paw with Freund's adjuvant (dried human tubercle bacilli in a mineral oil vehicle) at a dose of 2 mg./kg. of body weight. The test compounds were administered orally in a 1.5% starch vehicle at various doses once daily on days 0 to 13 post challenge. Control rats were treated in a similar manner, but given only starch vehicle. On the 14th and 21st day post challenge the diameter of the injected paw was measured by micrometer caliper. The volume of inflamed paws were estimated from these measurements and the effects of each compound are expressed as percent inhibition of swelling as compared to controls. Table II records the results of these tests conducted with representative compounds of this invention and known anti-inflammatory agents. The active compounds of this invention suppress the progression of the arthritis and associated joint deterioration.

The mark [3] stands for this setting: oral 50 mg./kg. daily days 0 to 13, * (where printed) p = <.05 by t test.
Where [4] appears, read: oral 50 mg./kg. daily days 0 to 13, no asterisk.
Setting [5] is: oral 25 mg./kg. daily days 0 to 13, * p = <.05 by t test.

This note sets out measurements from patent US4197310A, “Thiophenepropionitriles” (American Cyanamid Company, priority 1979, dated 1980).

Each structure is given as a SMILES string.

On to `C/C(O)=C(\C#N)C(=O)c1cccs1` [Cis-2-(2-thenoyl)-3-hydroxycrotononitrile], for which, in assay [1], the “C/T Ratio (edema of control animals/edema of treated animals)” value was 2.04. The “% Inhibition of Swelling, Day 14” value in assay [2] (setting [3]) worked out at 42%. Further, in assay [2] (setting [4]), the “% Inhibition of Swelling, Day 21” value amounted to 6%.
For `C/C(O)=C(\C#N)C(=O)c1ccsc1` [Cis-2-(3-thenoyl)-3-hydroxycrotononitrile] the same measures were 2.42, 38% and 19%.
With `C/C(O)=C(\C#N)C(=O)c1ccc(Cl)s1` [Cis-2-(5-chloro-2-thenoyl)-3-hydroxycrotononitrile], in assay [2] (setting [5]), the “% Inhibition of Swelling, Day 14” value worked out at 49% and the “% Inhibition of Swelling, Day 21” value stood at 31%.
